Experimental data reported in patent US20260015592A1, “NEDDYLATION-ACTIVATING ENZYME INHIBITORS AS VIRAL SENSITIZERS AND USES THEREOF” (priority 2022, published 2026).
Residues, ends and D or L forms follow the SMILES beside them. *: point of attachment. Cbz = O=C(OCc1ccccc1)*; CH2F = FC*

How the values were obtained:
VSVΔ51 [1] = assay type: cell-based, vesicular stomatitis virus
786-0 cells [2] = tested on: 786-0 cells
IFN-β = assay type: cell-based, Human
VSVΔ51 [3] = assay type: cell-based, vesicular stomatitis virus; remark: listed apart in the source
VSVΔ51 [4] = assay type: cell-based, vesicular stomatitis virus; remark: listed apart in the source
VSVΔ51 [5] = assay type: cell-based, vesicular stomatitis virus; remark: listed apart in the source
VSVΔ51 [6] = assay type: cell-based, vesicular stomatitis virus; remark: listed apart in the source
786-0 cells [7] = assay type: cell-based, Human
CT26WT colon carcinoma = conditions: mouse, in vivo
4T1 mammary carcinoma = conditions: mouse, in vivo
786-0 cells [8] = assay type: cell-based, Human; remark: listed apart in the source
STAT1 = assay type: cell-based, Human
NF-κB = assay type: cell-based, Human
VSV-wild type-FLuc = assay type: cell-based, vesicular stomatitis virus
MG-1 = assay type: cell-based, Maraba virus
STAT1 and STAT2 = assay type: cell-based, Human
VSVΔ51 [9] = assay type: cell-based, vesicular stomatitis virus; remark: listed apart in the source
AAV2-Fluc = AAV2-Fluc production in HEK293 cells, functional titre assay; assay type: cell-based, adeno-associated virus (AAV)
[10] = tested on: various human and murine cell lines
[11] = tested on: primary murine hepatocytes
786-0 cells [12] = assay: cells; conditions: Homo sapiens, 786-0, read-out: cell viability

Q: `CCOc1cccc(F)c1C#Cc1cn([C@@H]2O[C@H](CNS(N)(=O)=O)[C@@H](O)[C@H]2O)c2ncnc(N)c12` [TAS4464] was tested. Which “VSVΔ51 infectivity (fluorescent signal, plaque assay)” value (“VSVΔ51 infectivity” below) (VSVΔ51 [1]) did it give?
A: increased VSVΔ51 infectivity

Q: What about the “VSVΔ51 oncolysis (cell viability, Alamar blue)” value (786-0 cells [2]) of the same compound?
A: enhanced oncolysis

Q: Which cell viability (786-0 cells [2]) does the source give for `COC(=O)C[C@H](NC(=O)[C@H](C)NC(=O)[C@@H](NC(=O)OCc1ccccc1)C(C)C)C(=O)CF` [Z-VAD-FMK] (Cbz-Val-Ala-Asp(OMe)-CH2F) here?
A: 71%

Q: `Nc1ccc(SCC(=O)Nc2ccc3nc(NC(=O)c4ccc(C(F)(F)F)cc4)sc3c2)cc1` [ZM223, N-(6-(2-((4-aminophenyl)thio)acetamido)benzo[d]thiazol-2-yl)-4-(trifluoromethyl) benzamide] was tested. Which “VSVΔ51 infectivity” value (VSVΔ51 [1]) did it give?
A: some viral sensitizing activity

Q: What about the IFN-β secretion (IFN-β) of the same compound?
A: unable to do the same

Q: `NS(=O)(=O)OC[C@@H]1C[C@H](n2ccc3c(N[C@H]4CCc5ccccc54)ncnc32)C[C@@H]1O` [pevonedistat, ((1S,2S,4S)-4-(4-(((S)-2,3-dihydro-1H-inden-1-yl)amino)-7H-pyrrolo[2,3-d]pyrimidin-7-yl)-2-hydroxycyclopentyl) methyl sulfamate] was tested. Which “VSVΔ51 growth (relative titer), multi-step growth curve” value (VSVΔ51 [1]) did it give?
A: robustly enhance

Q: What about the “VSVΔ51 infectivity” value (VSVΔ51 [1]) of the same compound?
A: increased VSVΔ51 infectivity

Q: And the “average plaque diameter (plaque expansion assay)” value (VSVΔ51 [1])?
A: significantly increased

Q: What about the “time of administration capable of increasing VSVΔ51 viral titer” value (VSVΔ51 [1]) of the same compound?
A: 24 hours prior until 4 hours after infection

Q: What about the “viral GFP transgene expression” value (VSVΔ51 [1]) of the same compound?
A: marked increase

Q: What about the VSVΔ51-GFP viral titer (VSVΔ51 [3]) of the same compound?
A: increases

Q: And the VSVΔ51 viral titer (VSVΔ51 [3])?
A: significantly increased

Q: And the viral replication (VSVΔ51 [4])?
A: does not increase viral replication

Q: And the “increase in VSVΔ51 viral titer” value (VSVΔ51 [5])?
A: over 30 fold

Q: What about the VSVΔ51 infection (VSVΔ51 [6]) of the same compound?
A: able to increase VSVΔ51 infection

Q: What about the “increase in viral titer” value (VSVΔ51 [6]) of the same compound?
A: over 15 fold

Q: What about the caspase-8 activity (786-0 cells [7]) of the same compound?
A: remained significantly increased

Q: What about the “cleaved caspase-3 levels” value (786-0 cells [7]) of the same compound?
A: markedly higher levels

Q: What about the “full-length poly (ADP-ribose) polymerase (PARP) levels” value (786-0 cells [7]) of the same compound?
A: decreased levels

Q: And the “proportion of Annexin V-positive cells” value (786-0 cells [7])?
A: significantly greater proportion

Q: And the “time of peak caspase-8 activity” value (786-0 cells [7])?
A: 36 hpi

Q: What about the “overall survival after CT26WT re-challenge” value (CT26WT colon carcinoma) of the same compound?
A: improved overall survival

Q: What about the “tumor volume progression after CT26WT re-challenge” value (CT26WT colon carcinoma) of the same compound?
A: suppress tumor volume progression more effectively

Q: And the tumor volumes post-treatment (CT26WT colon carcinoma)?
A: significantly smaller

Q: And the survival (4T1 mammary carcinoma)?
A: significantly prolonged survival

Q: What about the tumor volumes post-treatment (4T1 mammary carcinoma) of the same compound?
A: significantly smaller

Q: What about the “STAT1 transcription factor activity predicted by TFactS” value (786-0 cells [8]) of the same compound?
A: inhibited

Q: What about the “downregulation of promyelocytic leukemia protein (PML) gene” value (786-0 cells [8]) of the same compound?
A: approximately 79 fold

Q: And the “expression of genes related to the IFN-1 GO term” value (786-0 cells [8])?
A: significantly downregulated

Q: And the genes significantly downregulated (786-0 cells [8])?
A: 3,326 genes

Q: What about the “genes significantly upregulated (P<0.05, log 2-fold change >2)” value (786-0 cells [8]) of the same compound?
A: 3,038 genes

Q: What about the “phosphorylation levels of STAT1 and STAT2 in response to IFN-β treatment” value (STAT1) of the same compound?
A: unable to markedly influence

Q: What about the “protein availability of ISGF3 components including STAT1” value (STAT1) of the same compound?
A: global reduction in protein availability

Q: What about the “transcription of STAT1 and downstream ISGs (IRF7, MX2, IFTM1)” value (STAT1) of the same compound?
A: significantly decrease

Q: What about the “transcription of STAT1 in the presence of exogenous IFN” value (STAT1) of the same compound?
A: inhibiting the transcription of STAT1

Q: And the “NF-κB protein expression in nuclear fractions” value (NF-κB)?
A: markedly less NF-κB protein expression

Q: And the “transcription of pro-inflammatory cytokines controlled by NF-κB signaling including IFN-β” value (NF-κB)?
A: repressed transcription

Q: And the “production of wild-type VSV” value (VSV-wild type-FLuc)?
A: facilitate production

Q: What about the “production of MG-1” value (MG-1) of the same compound?
A: facilitate production

Q: And the “downstream RNA levels of IFN-1 effectors” value (STAT1 and STAT2)?
A: decreased

Q: What about the “total protein levels of STAT1 and STAT2” value (STAT1 and STAT2) of the same compound?
A: decreased

Q: And the “viral titer of VSVΔ51” value (VSVΔ51 [9])?
A: able to increase the viral titer

Q: And the “optimal concentration for AAV2-Fluc enhancement” value (AAV2-Fluc; HEK293, functional titre assay)?
A: 200 to 400 nM

Q: And the “enhancement of AAV2-Fluc viral signal” value (AAV2-Fluc; HEK293, treated 60 min post transfection, 72 h, over a range of concentrations)?
A: up to 2.6 fold

Q: What about the “cell killing and apoptosis activation” value (786-0 cells [2]) of the same compound?
A: increased cell killing and apoptosis activation

Q: And the “lowest concentration with significant viability differences with vs without VSVΔ51” value (786-0 cells [2])?
A: ≥ 120 nM

Q: What about the “cytotoxicity in combination with VSVΔ51” value [10] of the same compound?
A: increased cytotoxicity

Q: What about the “viability, compound + VSVΔ51 vs compound only” value [11] of the same compound?
A: no significant viability differences

Q: What about the viability at 1 µM (786-0 cells [12]) of the same compound?
A: 33%
